Experimental data published in patent publication US20020048271A1, “Methods and composition for restoring conformational stability of a protein of the p53 family” (priority 1998, published 2002).

Legend:
[1] = test system: mutant p53 (position 173 or position 249) in Saos-2 cells; experiment: WAF1 and p53 expression, Western blot, Saos-2 cells with transfected mutant p53; type: cell-based; conditions: position 173 or 249 mutant; Compound X for 16 hours
Description: WAF1 and p53 Expression. […] Protein concentrations were determined using Bradford reagent (BioRad) and 5 or 10 ug of cell lysate were loaded onto 8-16 percent gradient polyacrylamide/SDS gels (Novex). […] The blots were washed for one hour in three changes of Tris buffered saline with 0.1 percent Tween 20, before the addition of the secondary antibody, HRP-conjugated anti-mouse IgG. The bands were visualized using Renaissance ECL (DuPont) and exposure to Hyperfilm ECL (Amersham Life Science).

wild-type p53 DBD = molecular target: T1, wild-type p53 DBD (Homo sapiens, UniProt P04637); experiment: p53 DBD thermostabilization assay (ELISA for mAb1620 epitope); type: biochemical; conditions: 0.5 ng of p53 DBD heated at 45° C. for 30 minutes; read-out: SC50: concentration of compound required to preserve 50% of the epitope for mAb 1620
T1 construct: Recombinant DBD (residues 94-312) from wild-tvpe and mutant p53 proteins; made in house
Description: Thermostabilization Assay. Recombinant DBD (residues 94-312) from wild-tvpe and mutant p53 proteins and FLAG-tagged p53 DBD were prepared as described (Pavletich et al., 1993, Genes and Dev. 7, 2556-2564; Bullock et al., 1997, supra.). Mutant proteins used were 143A, 173A, 175S. 249S, and 273H. A number of small molecule organic compounds were tested. Compound stocks were dissolved in DMSO at 10 mg/ml and diluted prior to use. The proteins (0.25-1.0 ng/well) were diluted in a buffer containing 25 mM HEPES, pH 6.8, 150 mM KCl, 10 mM dithiothreitol and attached in 50 ul to Reacti-Bind microtiter plates (Pierce) for 35 minutes on ice. The wells were rinsed with 25 mM HEPES, pH 6.8, 150 mM KCl, compound or diluted DMSO vehicle added, and the plates incubated at the indicated temperatures. Incubation was terminated by placing the wells on ice; ELISA assays performed while maintaining the plates on ice in order to avoid further alterations of the epitopes. Wells were blocked for 1 hour with cold 5 percent skim milk (Difco) in HEPES/KCl buffer prior to addition of the primary antibodies. Monoclonal antibodies mAb1620, mAb240 (Calbiochem) and anti-FLAG M2 antibody (Eastman Kodak Company) were diluted at 1:100-1:250 in HEPES/KCl and added at 100 ul/well for 30 minutes. The plates were rinsed twice with cold HEPES/KCl buffer and incubated with horseradish peroxidase (HRP)-conjugated anti-mouse IgG (Boehringer Mannheim) for another 30 minutes. The HRP signal was developed using TMB developer (Pierce) and the optical density of the signal was read on a BioRad microplate reader set at 450 nm.

mutant mouse p53 = conditions: Brown et al., 1997; cited from earlier work

T1 sequence (P04637 94-312): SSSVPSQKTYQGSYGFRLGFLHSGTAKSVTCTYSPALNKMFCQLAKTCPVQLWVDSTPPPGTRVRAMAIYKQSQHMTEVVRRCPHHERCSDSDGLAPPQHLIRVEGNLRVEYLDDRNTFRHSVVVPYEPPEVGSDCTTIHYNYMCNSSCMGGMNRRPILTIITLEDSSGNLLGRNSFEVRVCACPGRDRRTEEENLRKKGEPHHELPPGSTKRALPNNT

Structure (SMILES): COc1cccc2c1C(=O)c1c(O)c3c(c(O)c1C2=O)C[C@@](O)(C(=O)CO)C[C@@H]3O[C@H]1C[C@H](N)[C@H](O)[C@H](C)O1 [Adriamycin]
- WAF1 expression in Saos-2 cells with mutant p53 [1]: did not induce WAF-1 expression

Structure (SMILES): C(=C\c1nc(NCCCN2CCOCC2)c2ccccc2n1)/c1ccccc1 [Compound 1A]
- EC50 (wild-type p53 DBD): 36 µM

Structure (SMILES): C(=C\c1nc(N2CCOCC2)c2ccccc2n1)/c1ccccc1 [Compound 1B]
- EC50 (wild-type p53 DBD): > 300 µM

Structure (SMILES): c1ccc2c(NCCCN3CCOCC3)c3cccnc3cc2c1 [Compound 2A]
- EC50 (wild-type p53 DBD): 120 µM

Structure (SMILES): c1ccc2c(NCCN3CCOCC3)c3cccnc3cc2c1 [Compound 2B]
- EC50 (wild-type p53 DBD): > 300 µM

Structure (SMILES): CCN(CC)CCCNc1c2ccccc2cc2ncccc12 [Compound 3A]
- EC50 (wild-type p53 DBD): 50 µM

Structure (SMILES): CCN(CC)CCCCNc1c2ccccc2cc2ncccc12 [Compound 3B]
- EC50 (wild-type p53 DBD): 120 µM

Structure (SMILES): CC(CN(C)C)CN1c2ccccc2Sc2ccccc21 (stereo not shown) [Compound 4A]
- EC50 (wild-type p53 DBD): 38 µM

Structure (SMILES): CN(C)CCCN1c2ccccc2Sc2ccccc21 [Compound 4B]
- EC50 (wild-type p53 DBD): > 300 µM

Structure (SMILES): OCC(O)CO [Glycerol]
- Concentration restoring nuclear localization of mutant mouse p53 (mutant mouse p53): 600 mM
